In patent US20220332701A1, “HETEROCYCLIC COMPOUNDS AS BCR-ABL INHIBITORS” (ASCENTAGE PHARMA (SUZHOU) CO., LTD., priority 2019, published 2022) one finds GI50 data, which are given here for 27 compounds.

Assay [1] addresses BaF3(T315I) (Homo sapiens, UniProt P00519, T315I, cells depend on it). Briefly: WST (CCK-8) anti-proliferation assay, BaF3 T315I cells. The following applies: read-out: BaF3(T315I); anti-proliferative IC50, 72 h treatment, CCK-8, BaF3 T315I.
Assay [2] addresses BaF3(WT) (Homo sapiens, UniProt P00519). Briefly: WST (CCK-8) anti-proliferation assay, BaF3 WT cells. As to conditions: read-out: BaF3(WT); anti-proliferative IC50, 72 h treatment, CCK-8, BaF3 WT.
Experimental: The anti-proliferative effect of representative Compounds of the Disclosure was determined by a water-soluble tetrazolium (WST)-based assay using Cell Counting Kit-8 (CCK-8). Cells were seeded in 96-well plates and treated with different concentrations of test articles for 72 h. Each treatment was tested in triplicates. Briefly, a series of 9 concentrations were chosen for each test article and added at 100 μl/well into a 96-well plate. Each concentration was tested in triplicates. 100 μl of diluent was added into 3-6 wells in the same plate for cell control group, and another set of 3-6 wells was used as a blank control.
In each well, 100 μl of cell suspension (containing optimal cell numbers, which creates approximately 100% confluence of cells in control wells based on by the absorbance (OD) value) was dispensed into the same 96-well plate except for the blank well. The plate was then cultured at 37° C. in an incubator in an atmosphere with 5% CO2 for 72 h. At the end of treatments, 20 μl/well of CCK-8 reagent was directly added to each wells. The plate was then incubated at 37° C. in an incubator in an atmosphere with 5% CO2 for 2-4 hour.
The cells viability was calculated using the mean OD value of triplicated wells following the equation below: (OD sample−OD blank)/(OD cell control−OD blank)×100 IC50 values were calculated with Graphpad Prism 6.0 software using nonlinear regression (curve fitting) type data analysis.

For `CN1C(=O)c2cc(C(=O)Nc3ccc(OC(F)(F)Cl)cc3)cc(-c3cccnc3)c2C1(C)C` [IV-9, N-(4-(chlorodifluoromethoxy)phenyl)-1,1,2-trimethyl-3-oxo-7-(pyridin-3-yl)isoindoline-5-carboxamide], the GI50 is 107 nM in assay [1] and 77 nM in assay [2].

With `COCCN(CCOC)C(=O)C1Cc2cc(C(=O)Nc3ccc(OC(F)(F)Cl)cc3)cc(-c3ccn[nH]3)c2N1C(C)C` (stereo not drawn) [VII-30, N^5-(4-(chlorodifluoromethoxy)phenyl)-1-isopropyl-N2,N2-bis(2-methoxyethyl)-7-(1H-pyrazol-5-yl)indoline-2,5-dicarboxamide], the GI50 was 94 nM in assay [1] and 16 nM in assay [2].

For the compound `CC(C)N1CC(C)(C)Oc2cc(C(=O)Nc3ccc(OC(F)(F)Cl)cc3)cc(-c3ccn[nH]3)c21` [IX-5, N-(4-(chlorodifluoromethoxy)phenyl)-4-isopropyl-2,2-dimethyl-5-(1H-pyrazol-5-yl)-3,4-dihydro-2H-benzo[b][1,4]oxazine-7-carboxamide], the GI50 worked out at 333 nM in assay [1] and 17 nM in assay [2].

`CN1C(=O)c2cc(C(=O)Nc3ccc(OC(F)(F)Cl)cc3)cc(-c3ccncc3)c2C1(C)C` [IV-4, N-(4-(chlorodifluoromethoxy)phenyl)-1,1,2-trimethyl-3-oxo-7-(pyridin-4-yl)isoindoline-5-carboxamide]: the GI50 amounted to 581 nM in assay [1] and 129 nM in assay [2].

Take `CC(C)N1c2c(cc(C(=O)Nc3ccc(OC(F)(F)Cl)cc3)cc2-c2ccn[nH]2)CC1CC(=O)N1CCOCC1` (stereo not drawn) [VII-35, N-(4-(chlorodifluoromethoxy)phenyl)-1-isopropyl-2-(2-morpholino-2-oxoethyl)-7-(1H-pyrazol-5-yl)indoline-5-carboxamide]: the GI50 in assay [1] turned out to be 1190 nM; in assay [2], 173 nM.

As for `CC1CN(C(C)C)c2cc(C(=O)Nc3ccc(OC(F)(F)Cl)cc3)cc(-c3ccn[nH]3)c21` (stereo not drawn) [III-1, N-(4-(chlorodifluoromethoxy)phenyl)-1-isopropyl-3-methyl-4-(1H-pyrazol-5-yl)indoline-6-carboxamide], the GI50 in assay [1] came to 3250 nM; in assay [2] it was 119 nM.

As for `CN(C)CCN1C(=O)C(C)(C)c2c(-c3ccn[nH]3)cc(C(=O)Nc3ccc(OC(F)(F)Cl)cc3)cc21` [V-7, N-(4-(chlorodifluoromethoxy)phenyl)-1-(2-(dimethylamino)ethyl)-3,3-dimethyl-2-oxo-4-(1H-pyrazol-5-yl)indoline-6-carboxamide], the GI50 came to 1540 nM in assay [1] and 324 nM in assay [2].

For the compound `CC(C)N1CCCc2cc(C(=O)Nc3ccc(OC(F)(F)Cl)cc3)cc(-c3ccn[nH]3)c21` [IX-1, N-(4-(chlorodifluoromethoxy)phenyl)-1-isopropyl-8-(1H-pyrazol-5-yl)-1,2,3,4-tetrahydroquinoline-6-carboxamide], the GI50 in assay [1] came out at 1050 nM; in assay [2], 235 nM.

With `CC(C)N1c2c(cc(C(=O)Nc3ccc(OC(F)(F)Cl)cc3)cc2-c2cncnc2)CC1C(=O)N1CC(O)C1` (stereo not drawn) [VII-14, N-(4-(chlorodifluoromethoxy)phenyl)-2-(3-hydroxyazetidine-1-carbonyl)-1-isopropyl-7-(pyrimidin-5-yl)indoline-5-carboxamide], the figures for the GI50 in assay [1] and in assay [2] were 660 nM and 56 nM, respectively.

With `CC(C)N1CC(CN(C)C)c2cc(C(=O)Nc3ccc(OC(F)(F)Cl)cc3)cc(-c3ccn[nH]3)c21` (stereo not drawn) [VII-27, N-(4-(chlorodifluoromethoxy)phenyl)-3-((dimethylamino)methyl)-1-isopropyl-7-(1H-pyrazol-5-yl)indoline-5-carboxamide], the GI50 in assay [1] was found to be 366 nM; in assay [2], 85 nM.

Take `CC(C)N1C(=O)C(C)(C)c2cc(C(=O)Nc3ccc(OC(F)(F)Cl)cc3)cc(-c3cncnc3)c21` [VIII-2, N-(4-(chlorodifluoromethoxy)phenyl)-1-isopropyl-3,3-dimethyl-2-oxo-7-(pyrimidin-5-yl)indoline-5-carboxamide]: the values for the GI50 in assay [1] and in assay [2] were 1990 nM and 359 nM, respectively.

Regarding `CC1CN(C(C)C)c2c(-c3ccn[nH]3)cc(C(=O)Nc3ccc(OC(F)(F)Cl)cc3)cc21` (stereo not drawn) [VII-38, N-(4-(chlorodifluoromethoxy)phenyl)-1-isopropyl-3-methyl-7-(1H-pyrazol-5-yl)indoline-5-carboxamide], the GI50 in assay [1] came to 223 nM; in assay [2], 20 nM.

As to `CC(C)N1C(=O)C(C)(C)c2cc(C(=O)Nc3ccc(OC(F)(F)Cl)cc3)cc(-c3ccn[nH]3)c21` [VIII-3, N-(4-(chlorodifluoromethoxy)phenyl)-1-isopropyl-3,3-dimethyl-2-oxo-7-(1H-pyrazol-5-yl)indoline-5-carboxamide], the results for the GI50 in assay [1] and in assay [2] were 1010 nM and 313 nM, respectively.

For the compound `CC(C)N1c2c(cc(C(=O)Nc3ccc(OC(F)(F)Cl)cc3)cc2-c2ccn[nH]2)CC1C(=O)N1CCN(C)CC1` (stereo not drawn) [VII-33, N-(4-(chlorodifluoromethoxy)phenyl)-1-isopropyl-2-(4-methylpiperazine-1-carbonyl)-7-(1H-pyrazol-5-yl)indoline-5-carboxamide], the figures for the GI50 in assay [1] and in assay [2] were 163 nM and 49 nM, respectively.

With `CC(C)N1c2c(cc(C(=O)Nc3ccc(OC(F)(F)Cl)cc3)cc2-c2cncnc2)CC1C(=O)N(C)C` (stereo not drawn) [VII-15, N5-(4-(chlorodifluoromethoxy)phenyl)-1-isopropyl-N2,N2-dimethyl-7-(pyrimidin-5-yl)indoline-2,5-dicarboxamide], the GI50 amounted to 131 nM in assay [1] and 19 nM in assay [2].

Regarding `O=C(Nc1ccc(OC(F)(F)Cl)cc1)c1cc2c(c(-c3cc[nH]n3)c1)C1(CCC(O)C1)C(=O)N2` (stereo not drawn) [V-5, N-(4-(chlorodifluoromethoxy)phenyl)-3-hydroxy-2′-oxo-4′-(1H-pyrazol-5-yl)spiro[cyclopentane-1,3′-indoline]-6′-carboxamide], the GI50 came to 335 nM in assay [1] and 144 nM in assay [2].

For `CC(C)n1cc(CO)c2cc(C(=O)Nc3ccc(OC(F)(F)Cl)cc3)cc(-c3cncnc3)c21` [XII-7, N-(4-(chlorodifluoromethoxy)phenyl)-3-(hydroxymethyl)-1-isopropyl-7-(pyrimidin-5-yl)-1H-indole-5-carboxamide], the GI50 turned out to be 552 nM in assay [1] and 82 nM in assay [2].

Regarding `CN1C(=O)c2cc(C(=O)Nc3ccc(OC(F)(F)Cl)cc3)cc(-c3ccn[nH]3)c2C1(C)C` [IV-1, N-(4-(chlorodifluoromethoxy)phenyl)-1,1,2-trimethyl-3-oxo-7-(1H-pyrazol-5-yl)isoindoline-5-carboxamide], the results for the GI50 in assay [1] and in assay [2] were 244 nM and 24 nM, respectively.

For the compound `CC(C)N1CCCCc2cc(C(=O)Nc3ccc(OC(F)(F)Cl)cc3)cc(-c3ccn[nH]3)c21` [X-1, N-(4-(chlorodifluoromethoxy)phenyl)-1-isopropyl-9-(1H-pyrazol-5-yl)-2,3,4,5-tetrahydro-1H-benzo[b]azepine-7-carboxamide], the GI50 in assay [1] amounted to 1290 nM; in assay [2], 67 nM.

With `CC1CN(C(C)C)c2c(cc(C(=O)Nc3ccc(OC(F)(F)Cl)cc3)cc2-c2ccn[nH]2)O1` (stereo not drawn) [IX-4, N-(4-(chlorodifluoromethoxy)phenyl)-4-isopropyl-2-methyl-5-(1H-pyrazol-5-yl)-3,4-dihydro-2H-benzo[b][1,4]oxazine-7-carboxamide], the GI50 is 3110 nM in assay [1] and 33 nM in assay [2].

Take `CC(C)N1c2c(cc(C(=O)Nc3ccc(OC(F)(F)Cl)cc3)cc2-c2ccn[nH]2)CC1CO` (stereo not drawn) [VII-34, N-(4-(chlorodifluoromethoxy)phenyl)-2-(hydroxymethyl)-1-isopropyl-7-(1H-pyrazol-5-yl)indoline-5-carboxamide]: the GI50 in assay [1] is 648 nM; in assay [2] it was 45 nM.

Consider `CC(C)N1c2c(cc(C(=O)Nc3ccc(OC(F)(F)Cl)cc3)cc2-c2cncnc2)CC1C(=O)NCCS(C)(=O)=O` (stereo not drawn) [VII-22, N5-(4-(chlorodifluoromethoxy)phenyl)-1-isopropyl-N2-(2-(methylsulfonyl)ethyl)-7-(pyrimidin-5-yl)indoline-2,5-dicarboxamide], for which the GI50 in assay [1] is 1350 nM; in assay [2] it was 145 nM.

Consider `O=C(Nc1ccc(OC(F)(F)Cl)cc1)c1cc2c(c(-c3ccn[nH]3)c1)C1(CC=CC1)C(=O)N2` [V-4, N-(4-(chlorodifluoromethoxy)phenyl)-2′-oxo-4′-(1H-pyrazol-5-yl)spiro[cyclopentane-1,3′-indolin]-3-ene-6′-carboxamide], for which the GI50 in assay [1] was 292 nM; in assay [2], 43 nM.

Take `CN1CCc2cc(C(=O)Nc3ccc(SC(F)(F)F)cc3)cc(-c3ccn[nH]3)c21` [VII-44, 1-methyl-7-(1H-pyrazol-5-yl)-N-(4-((trifluoromethyl)thio)phenyl)indoline-5-carboxamide]: the values for the GI50 in assay [1] and in assay [2] were 666 nM and 66 nM, respectively.

`O=C(Nc1ccc(OC(F)(F)Cl)cc1)c1cc2c(c(-c3ccn[nH]3)c1)C1(CC(O)C(O)C1)C(=O)N2` (stereo not drawn) [V-9, N-(4-(chlorodifluoromethoxy)phenyl)-3,4-dihydroxy-2′-oxo-4′-(1H-pyrazol-5-yl)spiro[cyclopentane-1,3′-indoline]-6′-carboxamide]: the GI50 was 910 nM in assay [1] and 108 nM in assay [2].

For the compound `CC(C)N1c2c(cc(C(=O)Nc3ccc(OC(F)(F)Cl)cc3)cc2-c2cncnc2)CC1C(=O)O` (stereo not drawn) [VII-21, 5-((4-(chlorodifluoromethoxy)phenyl)carbamoyl)-1-isopropyl-7-(pyrimidin-5-yl)indoline-2-carboxylic acid], the GI50 in assay [1] was 1610 nM; in assay [2], 158 nM.

Take `CC1(C)c2c(cc(C(=O)Nc3ccc(OC(F)(F)Cl)cc3)cc2-c2ccn[nH]2)C(=O)N1CCO` [IV-5, N-(4-(chlorodifluoromethoxy)phenyl)-2-(2-hydroxyethyl)-1,1-dimethyl-3-oxo-7-(1H-pyrazol-5-yl)isoindoline-5-carboxamide]: the GI50 in assay [1] was 1060 nM; in assay [2], 121 nM.
